Laboratory results taken from the NIST ThermoML archive (doi:10.1016/j.jct.2012.01.011).
± gives the expanded uncertainty stated by the source.

Assay: molar heat capacity at constant pressure
Details: Liquid, Flow calorimetry

Row | molar heat capacity at constant pressure (293.15 K, 100 kPa) [J/K/mol] | molar heat capacity at constant pressure (293.15 K, 10000 kPa) [J/K/mol] | molar heat capacity at constant pressure (293.15 K, 20000 kPa) [J/K/mol] | molar heat capacity at constant pressure (293.15 K, 30000 kPa) [J/K/mol] | molar heat capacity at constant pressure (313.15 K, 100 kPa) [J/K/mol] | molar heat capacity at constant pressure (313.15 K, 10000 kPa) [J/K/mol] | molar heat capacity at constant pressure (313.15 K, 20000 kPa) [J/K/mol] | molar heat capacity at constant pressure (313.15 K, 30000 kPa) [J/K/mol] | molar heat capacity at constant pressure (333.15 K, 100 kPa) [J/K/mol] | molar heat capacity at constant pressure (333.15 K, 10000 kPa) [J/K/mol] | molar heat capacity at constant pressure (333.15 K, 20000 kPa) [J/K/mol] | molar heat capacity at constant pressure (333.15 K, 30000 kPa) [J/K/mol] | molar heat capacity at constant pressure (353.15 K, 100 kPa) [J/K/mol] | molar heat capacity at constant pressure (353.15 K, 10000 kPa) [J/K/mol] | molar heat capacity at constant pressure (353.15 K, 20000 kPa) [J/K/mol] | molar heat capacity at constant pressure (353.15 K, 30000 kPa) [J/K/mol] | SMILES
1 | 879 ± 8.9 | 873.5 ± 8.8 | 868.5 ± 8.8 | 865.5 ± 8.7 | 904.4 ± 9.1 | 898.9 ± 9.1 | 896.4 ± 9.1 | 893.4 ± 9 | 943.3 ± 9.5 | 940.8 ± 9.5 | 936.1 ± 9.5 | 929.3 ± 9.4 | 978.8 ± 9.9 | 973.7 ± 9.8 | 963.2 ± 9.7 | 959.8 ± 9.7 | CC(C)CCCC(C)CCCC(C)CCCCC(C)CCCC(C)CCCC(C)C (stereo not drawn) [2,6,10,15,19,23-hexamethyltetracosane]
2 | 810.3 ± 8.2 | 808.5 ± 8.2 | 805.6 ± 8.1 | 803 ± 8.1 | 846.5 ± 8.6 | 843.5 ± 8.5 | 840.1 ± 8.5 | 838.4 ± 8.5 | 878.1 ± 8.9 | 875.5 ± 8.8 | 873.4 ± 8.8 | 871.7 ± 8.8 | 910.9 ± 9.2 | 909.7 ± 9.2 | 907.1 ± 9.2 | 906.3 ± 9.2 | CCCCC(CC)COC(=O)CCCCCCCCC(=O)OCC(CC)CCCC (stereo not drawn) [bis(2-ethylhexyl) decanedioate]

Row | SMILES | molar heat capacity at constant pressure (293.15 K, 100 kPa) [J/K/mol] | molar heat capacity at constant pressure (293.15 K, 10000 kPa) [J/K/mol] | molar heat capacity at constant pressure (293.15 K, 20000 kPa) [J/K/mol] | molar heat capacity at constant pressure (293.15 K, 30000 kPa) [J/K/mol] | molar heat capacity at constant pressure (313.15 K, 100 kPa) [J/K/mol] | molar heat capacity at constant pressure (313.15 K, 10000 kPa) [J/K/mol] | molar heat capacity at constant pressure (313.15 K, 20000 kPa) [J/K/mol] | molar heat capacity at constant pressure (313.15 K, 30000 kPa) [J/K/mol] | molar heat capacity at constant pressure (333.15 K, 100 kPa) [J/K/mol] | molar heat capacity at constant pressure (333.15 K, 10000 kPa) [J/K/mol] | molar heat capacity at constant pressure (333.15 K, 20000 kPa) [J/K/mol] | molar heat capacity at constant pressure (333.15 K, 30000 kPa) [J/K/mol] | molar heat capacity at constant pressure (353.15 K, 100 kPa) [J/K/mol] | molar heat capacity at constant pressure (353.15 K, 10000 kPa) [J/K/mol] | molar heat capacity at constant pressure (353.15 K, 20000 kPa) [J/K/mol] | molar heat capacity at constant pressure (353.15 K, 30000 kPa) [J/K/mol]
3 | CCCCC(CC)COC(=O)c1ccccc1C(=O)OCC(CC)CCCC (stereo not drawn) [bis(2-ethylhexyl) 1,2-benzenedicarboxylate] | 703 ± 7.1 | 701.5 ± 7.1 | 699.9 ± 7.1 | 699.6 ± 7.1 | 726.9 ± 7.3 | 724.9 ± 7.3 | 723 ± 7.3 | 722 ± 7.3 | 751.3 ± 7.6 | 750 ± 7.6 | 747.5 ± 7.6 | 746 ± 7.5 | 774.5 ± 7.8 | 770.5 ± 7.8 | 767.9 ± 7.8 | 763.4 ± 7.7
